# US4048299A, “Anticaries confectionaries and oral health products” (William Wrigley, Jr. Co., priority 1970, dated 1977)
# How the values were obtained:
# [1] = tested on: Lactobacillus casei and Streptococcus sp. FA-1; experiment: Acid-production inhibition by broth-tube assay, 0.1 percent of compound; type: cell-based; conditions: Table XII; 0.1% of compound
# Procedure: ^(a) Activity was measured by broth-tube assay to determine percent
# (§1) acid-production inhibition obtained by Lactobacillus casei and
# Streptococcus sp. FA-1 in the presence of 0.1 percent of compound.
# ^(a) Activity was measured by broth-tube assay to determine percent o
# as §1
# Streptococcus sp. FA-1 in the presence of 0.1% of compound. Symbols
# Streptococcus sp. GS-5 = experiment: Acid production inhibition, broth-tube technique; type: cell-based; conditions: Table XI, emulsion with 4 parts Tween 20
# Procedure: (a)2,4-Hexadienal was prepared as an emulsion with 4 parts of Tween 20.
# oral microorganisms [2] = experiment: Acid production inhibition in vitro (summary); type: cell-based; conditions: in words, summary of tables
# Procedure: (§2) Other in vitro evaluations utilized a broth tube analysis of representative anticaries aldehydes incorporated in the vehicles of this invention against cultures of acid producing microorganisms normally present in the mouth. Standard laboratory procedures were utilized throughout to evaluate the acid production inhibition and growth inhibition over the incubation time of up to 24 hours.
# oral microorganisms [3] = experiment: Growth inhibition in vitro (summary); type: cell-based; conditions: in words, summary of tables
# Procedure: as §2
# Streptococcus sp. FA-1 = experiment: Acid production inhibition, broth-tube technique; conditions: Table XI, emulsion with 4 parts Tween 20
# Excerpt: (§9) The data was compiled through well-known broth tube analysis techniques.
# Lactobacillus casei = experiment: Acid production inhibition, broth-tube technique; conditions: Table XI, emulsion with 4 parts Tween 20
# Excerpt: as §9
# [4] = tested on: Lactobacillus casei ATCC 4646; experiment: Acid production inhibition by aldehydes in product vehicles, broth-tube technique; type: cell-based; conditions: 1 to 5 percent aldehyde
# Procedure: as §2
# (§3) (a)Measured by broth-tube technique.
# (§4) In formulating Tables XIII - XIX representative aldehydes having anticaries activity were selected from those tested as summarized in Tables I - XII and incorporated in seven representative types of products. The products included dextrose and sucrose syrups, obtained commercially in food grades, and compressed candy, hard candy, mouthwash, toothpaste and toothpowder. The five latter products also employed food grade and reagent grade ingredients. These products were formulated by well-known and representative recipes for each type of product. The products were formed in batches of approximately 1 pound or 1 liter and contained all their normal constitutents. Aliquots of each products were blended with one of each of the representative aldehydes selected except in the case of hard candy.
# (§5) Aliquots of the aldehyde incorporating sugar syrups, confectioneries, and mouthwash formulations were added directly to assay flasks and mixed or dissolved as required. Aqueous extracts of the aldehyde incorporated in toothpaste and toothpowder were prepared and aliquots of the filtrate were added to the assay flasks.
# (§6) The assay flasks contained the necessary components for a normal growth response from the organisms employed, Lactobacillus casei ATCC 4646, originally a human oral isolate, Streptococcus spp. K1-R, human caries isolate, and a mixed oral microbial population obtained fresh from saliva on the morning prior to the initiation of each assay incubation period. The assay flask medium was dissolved in distilled water in which was added an equal volume of filter sterilized human saliva to yield a 50 percent saliva-medium combination. The medium contained all normal ingredients such as yeast extract, proteose peptone number 3 (a proprietary formula of Difco Laboratories, Detroit, Michigan) monopotassium phosphate, Tween 80 (polyoxethylene sorbitan monoleate) and water, except a carbon source. This was supplied by the aliquot of the sucrose syrup, dextrose syrup, sucrose in the compressed candy tablet and sucrose in the hard candy product. In addition, an aliquot of sucrose solution concentrate was added to the assay flask as a carbon source for evaluation of mouthwash, toothpaste, and toothpowder vehicles.
# (§7) The lower aldehydes such as glycolaldehyde, crystalline dimer; pyruvaldehyde, aqueous syrup; d,1-glyceraldehyde solution and crystalline dimer; and glutaraldehyde, employed as a 50 percent aqueous solution, are water soluble and were employed directly either as powders or aqueous solutions. The C8 to C12, longer chain aliphatic aldehydes, of which decyl and dodecyl (lauric) were selected as representative, are oil soluble and are prepared and added to the products as emulsions with four parts of Tween 20, polyoxethylene sorbitan monolaurate. The aldehyde concentrations in the products were randomly chosen between 1 to 5 percent by weight. Limits for the concentrations were selected to coincide with the data presented in Tables I - XII in order to verify that the anticaries activity of the aldehydes in the product vehicles tested was equivalent to the activity previously established for the aldehydes alone.
# [5] = tested on: Mixed human oral microorganisms; experiment: as above; type: cell-based; conditions: 1 to 5 percent aldehyde
# Procedure: as §2, §3, §4, §5, §6, §7
# Streptococcus spp. KI-R [6] = experiment: as above; type: cell-based; conditions: 1 to 5 percent aldehyde
# Procedure: as §2, §3, §4, §5, §6, §7
# [7] = tested on: Lactobacillus casei ATCC 4646; experiment: Growth inhibition by aldehydes in product vehicles, pour-plate technique; type: cell-based; conditions: 1 to 5 percent aldehyde
# Procedure: as §2
# (§8) (b)Measured by pour-plate technique.
# as §4, §5, §6, §7
# [8] = tested on: Mixed human oral microorganisms; experiment: as above; type: cell-based; conditions: 1 to 5 percent aldehyde
# Procedure: as §2, §8, §4, §5, §6, §7
# Streptococcus spp. KI-R [9] = experiment: as above; type: cell-based; conditions: 1 to 5 percent aldehyde
# Procedure: as §2, §8, §4, §5, §6, §7
# oral microorganisms [10] = experiment: Comparison of activity against oral microorganisms in vitro; conditions: in words, summary of tables
# Procedure: Two types of in vitro evaluations of the anticaries agents of this invention were conducted. […] The data was compiled through well-known broth tube analysis techniques.
# [11] = in compressed candy tablet, 2 h incubation
# [12] = in compressed candy tablet, 5 h incubation
# [13] = in compressed candy tablet, 24 h incubation
# [14] = in dextrose syrup, 2 h incubation
# [15] = in dextrose syrup, 5 h incubation
# [16] = in dextrose syrup, 24 h incubation
# [17] = in sucrose syrup, 2 h incubation
# [18] = in sucrose syrup, 5 h incubation
# [19] = in sucrose syrup, 24 h incubation
# [20] = in tooth powder (aqueous extract), 2 h incubation
# [21] = in tooth powder (aqueous extract), 5 h incubation
# [22] = in tooth powder (aqueous extract), 24 h incubation
# [23] = in toothpaste (aqueous extract), 2 h incubation
# [24] = in toothpaste (aqueous extract), 5 h incubation
# [25] = in toothpaste (aqueous extract), 24 h incubation
smiles,measurement,setting,value
"CC=CC=CC=O [2,4-Hexadienal]","Activity, Acid-Production Inhibition, %",[1],++++ (99 to 100)
same,Inhibition of Acid Production,Streptococcus sp. GS-5; 0.01 percent,8%
same,Inhibition of Acid Production,Streptococcus sp. GS-5; 0.025 percent,35%
same,Inhibition of Acid Production,Streptococcus sp. GS-5; 0.05 percent,97%
same,Inhibition of Acid Production,Streptococcus sp. GS-5; 0.075 percent,99%
same,Inhibition of Acid Production,Streptococcus sp. GS-5; 0.10 percent,100%
same,Acid Production Inhibition,oral microorganisms [2],excellent acid production inhibition
same,Growth Inhibition,oral microorganisms [3],little or no growth inhibition
same,Inhibition of Acid Production,Streptococcus sp. FA-1; 0.01 percent,31%
same,Inhibition of Acid Production,Streptococcus sp. FA-1; 0.025 percent,92%
same,Inhibition of Acid Production,Streptococcus sp. FA-1; 0.05 percent,99%
same,Inhibition of Acid Production,Streptococcus sp. FA-1; 0.075 percent,99%
same,Inhibition of Acid Production,Streptococcus sp. FA-1; 0.10 percent,100%
same,Inhibition of Acid Production,Lactobacillus casei; 0.01 percent,27%
same,Inhibition of Acid Production,Lactobacillus casei; 0.025 percent,43%
same,Inhibition of Acid Production,Lactobacillus casei; 0.05 percent,88%
same,Inhibition of Acid Production,Lactobacillus casei; 0.075 percent,94%
same,Inhibition of Acid Production,Lactobacillus casei; 0.10 percent,98%
O=CCCCC=O [Glutaraldehyde],"Activity, Acid-Production Inhibition, %",[1],++++ (99 to 100)
same,Acid Production Inhibition,[4]; [11],0 Per Cent
same,Acid Production Inhibition,[4]; [12],33 Per Cent
same,Acid Production Inhibition,[4]; [13],81 Per Cent
same,Acid Production Inhibition,[4]; [14],76 Per Cent
same,Acid Production Inhibition,[4]; [15],70 Per Cent
same,Acid Production Inhibition,[4]; [16],29 Per Cent
same,Acid Production Inhibition,[4]; [17],100 Per cent
same,Acid Production Inhibition,[4]; [18],75 Per cent
same,Acid Production Inhibition,[4]; [19],50 Per cent
same,Acid Production Inhibition,[4]; [20],0 Per cent
same,Acid Production Inhibition,[4]; [21],33 Per cent
same,Acid Production Inhibition,[4]; [22],21 Per cent
same,Acid Production Inhibition,[4]; [23],80 Per cent
same,Acid Production Inhibition,[4]; [24],80 Per cent
same,Acid Production Inhibition,[4]; [25],50 Per cent
same,Acid Production Inhibition,[5]; [11],100 Per Cent
same,Acid Production Inhibition,[5]; [12],100 Per Cent
same,Acid Production Inhibition,[5]; [13],0 Per Cent
same,Acid Production Inhibition,[5]; [14],23 Per Cent
same,Acid Production Inhibition,[5]; [15],81 Per Cent
same,Acid Production Inhibition,[5]; [16],16 Per Cent
same,Acid Production Inhibition,"[5]; in mouthwash, 2 h incubation",0 Per cent
same,Acid Production Inhibition,"[5]; in mouthwash, 5 h incubation",100 Per cent
same,Acid Production Inhibition,"[5]; in mouthwash, 24 h incubation",91 Per cent
same,Acid Production Inhibition,[5]; [17],100 Per cent
same,Acid Production Inhibition,[5]; [18],59 Per cent
same,Acid Production Inhibition,[5]; [19],0 Per cent
same,Acid Production Inhibition,[5]; [20],67 Per cent
same,Acid Production Inhibition,[5]; [21],95 Per cent
same,Acid Production Inhibition,[5]; [22],45 Per cent
same,Acid Production Inhibition,[5]; [23],0 Per cent
same,Acid Production Inhibition,[5]; [24],0 Per cent
same,Acid Production Inhibition,[5]; [25],0 Per cent
same,Acid Production Inhibition,Streptococcus spp. KI-R [6]; [11],100 Per Cent
same,Acid Production Inhibition,Streptococcus spp. KI-R [6]; [12],100 Per Cent
same,Acid Production Inhibition,Streptococcus spp. KI-R [6]; [13],100 Per Cent
same,Acid Production Inhibition,Streptococcus spp. KI-R [6]; [14],70 Per Cent
same,Acid Production Inhibition,Streptococcus spp. KI-R [6]; [15],93 Per Cent
same,Acid Production Inhibition,Streptococcus spp. KI-R [6]; [16],0 Per Cent
same,Acid Production Inhibition,"Streptococcus spp. KI-R [6]; in mouthwash, 2 h incubation",0 Per cent
same,Acid Production Inhibition,"Streptococcus spp. KI-R [6]; in mouthwash, 5 h incubation",0 Per cent
same,Acid Production Inhibition,"Streptococcus spp. KI-R [6]; in mouthwash, 24 h incubation",99 Per cent
same,Acid Production Inhibition,Streptococcus spp. KI-R [6]; [17],100 Per cent
same,Acid Production Inhibition,Streptococcus spp. KI-R [6]; [18],83 Per cent
same,Acid Production Inhibition,Streptococcus spp. KI-R [6]; [19],0 Per cent
same,Acid Production Inhibition,Streptococcus spp. KI-R [6]; [20],0 Per cent
same,Acid Production Inhibition,Streptococcus spp. KI-R [6]; [21],0 Per cent
same,Acid Production Inhibition,Streptococcus spp. KI-R [6]; [22],0 Per cent
same,Acid Production Inhibition,Streptococcus spp. KI-R [6]; [23],100 Per cent
same,Acid Production Inhibition,Streptococcus spp. KI-R [6]; [24],100 Per cent
same,Acid Production Inhibition,Streptococcus spp. KI-R [6]; [25],84 Per cent
same,Growth Inhibition,[7]; [11],N.S.
same,Growth Inhibition,[7]; [12],N.S.
same,Growth Inhibition,[7]; [13],99.5 Per Cent
same,Growth Inhibition,[7]; [14],N.S.
same,Growth Inhibition,[7]; [15],N.S.
same,Growth Inhibition,[7]; [16],90 Per Cent
same,Growth Inhibition,[7]; [17],N.S.
same,Growth Inhibition,[7]; [18],N.S.
same,Growth Inhibition,[7]; [19],N.S.
same,Growth Inhibition,[7]; [20],N.S.
same,Growth Inhibition,[7]; [21],N.S.
same,Growth Inhibition,[7]; [22],N.S.
same,Growth Inhibition,[7]; [23],N.S.
same,Growth Inhibition,[7]; [24],N.S.
same,Growth Inhibition,[7]; [25],0 Per cent
same,Growth Inhibition,[8]; [11],97.3 Per Cent
same,Growth Inhibition,[8]; [12],99.8 Per Cent
same,Growth Inhibition,[8]; [13],N.S.
same,Growth Inhibition,[8]; [14],92.5 Per Cent
same,Growth Inhibition,[8]; [15],90 Per Cent
same,Growth Inhibition,[8]; [16],N.S.
same,Growth Inhibition,"[8]; in mouthwash, 2 h incubation",100 Per cent
same,Growth Inhibition,"[8]; in mouthwash, 5 h incubation",100 Per cent
same,Growth Inhibition,"[8]; in mouthwash, 24 h incubation",99.9 Per cent
same,Growth Inhibition,[8]; [17],90 Per cent
same,Growth Inhibition,[8]; [18],93 Per cent
same,Growth Inhibition,[8]; [19],N.S.
same,Growth Inhibition,[8]; [20],N.S.
same,Growth Inhibition,[8]; [21],96.6 Per cent
same,Growth Inhibition,[8]; [22],N.S.
same,Growth Inhibition,[8]; [23],0 Per cent
same,Growth Inhibition,[8]; [24],N.S.
same,Growth Inhibition,[8]; [25],N.S.
same,Growth Inhibition,Streptococcus spp. KI-R [9]; [11],N.S.
same,Growth Inhibition,Streptococcus spp. KI-R [9]; [12],N.S.
same,Growth Inhibition,Streptococcus spp. KI-R [9]; [13],N.S.
same,Growth Inhibition,Streptococcus spp. KI-R [9]; [14],N.S.
same,Growth Inhibition,Streptococcus spp. KI-R [9]; [15],99.96 Per Cent
same,Growth Inhibition,Streptococcus spp. KI-R [9]; [16],0 Per Cent
same,Growth Inhibition,"Streptococcus spp. KI-R [9]; in mouthwash, 2 h incubation",100 Per cent
same,Growth Inhibition,"Streptococcus spp. KI-R [9]; in mouthwash, 5 h incubation",99.999 Per cent
same,Growth Inhibition,"Streptococcus spp. KI-R [9]; in mouthwash, 24 h incubation",100 Per cent
same,Growth Inhibition,Streptococcus spp. KI-R [9]; [17],N.S.
same,Growth Inhibition,Streptococcus spp. KI-R [9]; [18],> 99 Per cent
same,Growth Inhibition,Streptococcus spp. KI-R [9]; [19],90 Per cent
same,Growth Inhibition,Streptococcus spp. KI-R [9]; [20],N.S.
same,Growth Inhibition,Streptococcus spp. KI-R [9]; [21],N.S.
same,Growth Inhibition,Streptococcus spp. KI-R [9]; [22],N.S.
same,Growth Inhibition,Streptococcus spp. KI-R [9]; [23],N.S.
same,Growth Inhibition,Streptococcus spp. KI-R [9]; [24],N.S.
same,Growth Inhibition,Streptococcus spp. KI-R [9]; [25],N.S.
same,Solubility,,water soluble
CC(O)C=O (stereo not drawn) [α-Hydroxypropionaldehyde],Anticaries activity in vitro,oral microorganisms [10],excellent anticaries activity
